Reference: patent publication US11413273B2, “Prophylactic or therapeutic agent for pulmonary hypertension comprising unsaturated 5-membered heterocycle-containing compound” (TOHOKU UNIVERSITY, priority 2016, dated 2022)

Key:
[1] = tested on: pulmonary artery smooth muscle cells derived from patients with idiopathic pulmonary arterial hypertension (IPAH-PASMCs); experiment: ability to suppress the proliferation of pulmonary artery smooth muscle cells from patients with pulmonary hypertension (MTT assay); assay type: cell-based, human; conditions: for day 2/day 0 cell number ratio (MTT cell viability): 48 hours, IPAH-PASMC line 1, 10% FBS control 1.40; for suppressive effect on the proliferation of pulmonary artery smooth muscle cells: same method as Example 1, data not shown
Method: The following compounds were used to assess the abilities of these compounds to suppress the proliferation of pulmonary artery smooth muscle cells from patients with pulmonary hypertension (IPAH-PASMC line: 1)
Those compounds were obtained by synthesis in the Faculty of Pharmaceutical Sciences, Tohoku University. Specifically, first, 66 μl each of pulmonary artery smooth muscle cells derived from patients with idiopathic pulmonary arterial hypertension (IPAH-PASMCs) suspended in a 10% FBS medium (DMEM supplemented with 10% FBS) were seeded in a 96-well plate at 50,000 cells/ml (day −1). 24 Hours after the cell seeding (the time point was defined as day 0), 33 μl each of 300 nM, 3 μM, and 15 μM solutions of CEL-1 to CEL-8, CEL-10, CEL-13 to CEL-15, and CEL-19 in 10% FBS containing 1% DMSO were added to the wells so that the final concentrations were 100 nM, 1 μM, and 5 μM, respectively. As a control, 33 μl of 10% FBS containing 1% DMSO was added in place of CEL-1 to CEL-8, CEL-10, CEL-13 to CEL-15, and CEL-19. On day 0 (immediately before the addition of each of CEL-1 to CEL-8, CEL-10, CEL-13 to CEL-15, and CEL-19), a cell viability was confirmed by performing CellTiter 96 (trademark) AQueous One Solution Cell Proliferation Assay, promega MTT assay. Further, 48 hours after the addition of each of CEL-1 to CEL-8, CEL-10, CEL-13 to CEL-15, and CEL-19 (day 2), the MTT assay was performed again to observe a change in cell viability. Thus, a cell proliferation-suppressing effect was assessed.
In addition, in the case where R^2 in the general formula (I) represents an alkyl group, in order to explore an association between the length of the alkyl group and a pulmonary artery smooth muscle cell proliferation-suppressing effect, a test on an ability to suppress the proliferation of the pulmonary artery smooth muscle cells from patients with pulmonary hypertension (IPAH-PASMC line:1) was performed three times, and the lengths of alkyl groups of the respective compounds and the results of stimulation with the compounds at a concentration of 5 μM for 48 hours (averages of day 2/day 0 cell number ratios) were shown graphically. A Pearson's correlation test was performed on the lengths of the alkyl groups and the day 2/day 0 cell number ratios. As a result, a significant correlation was found with a P-value of 0.0298.

[2] = tested on: hypoxia-induced pulmonary hypertension mouse model; experiment: hypoxia-induced pulmonary hypertension mouse model; assay type: in vivo, C57BL/6 mice; conditions: 10 mg/kg/day continuous subcutaneous infusion
Method: Next, the therapeutic effect of CEL-3 on pulmonary hypertension was assessed in vivo. Specifically, the influence of CEL-3 on a hypoxia-induced pulmonary hypertension mouse model was investigated. The pulmonary hypertension mouse model was generated by breeding 9-week-old male C57BL/6 mice (n=14) in a hypoxic chamber having an oxygen concentration of from 8% to 12%. Before being housed in the hypoxic chamber, the mice were implanted with an osmotic pump containing CEL-3 dissolved with 50% DMSO, and were administered CEL-3 at 10 mg/kg/day by continuous subcutaneous infusion. The Vehicle group was administered a DMSO solution at the same concentration with an osmotic pump. The mice were bred in the hypoxic chamber for 3 weeks and then sacrificed to measure a right ventricular systolic pressure (RVSP) with a pressure catheter 1.2F (Transonic Scisense, US). In addition, after formalin fixation, the right ventricle and the left ventricle were separated to measure a right ventricle/(left ventricle plus septum) weight ratio RV/[LV+S]). Then, the extent of pulmonary hypertension was assessed on the basis of those results. The body weights of the Vehicle group and the CEL-3 administration group before the test were each 25.6±0.3 g. In addition, the body weights of the Vehicle group and the CEL-3 administration group after the test were 24.2±0.8 g and 23.9±0.7 g, respectively.

[3] = tested on: SU5416/hypoxia-induced pulmonary hypertension rat model; experiment: SU5416/hypoxia-induced pulmonary hypertension rat model; assay type: in vivo, Sprague-Dawley rats; conditions: 3 mg/kg intraperitoneally daily for 2 weeks
Method: The pulmonary hypertension rat model was generated by: subcutaneously injecting 6-week-old male Sprague-Dawley rats ([…]) with SU5416 at 20 mg/kg; and then breeding the rats in a hypoxic chamber having an oxygen concentration of from 8% to 12% for 3 weeks followed by breeding the rats under normoxia for 2 weeks. After the hypoxic stimulation for 3 weeks, the rats were intraperitoneally injected with CEL-3 dissolved with 10% DMSO at 3 mg/kg daily for 2 weeks. The Vehicle group was intraperitoneally injected with a DMSO solution at the same concentration. The rats were treated with CEL-3 for 2 weeks and then sacrificed to measure a right ventricular systolic pressure (RVSP) with a pressure catheter 1.6F (Transonic Scisense, US). In addition, after formalin fixation, the right ventricle and the left ventricle were separated to measure a right ventricle/(left ventricle plus septum) weight ratio (RV/[LV+S]). Then, the extent of pulmonary hypertension was assessed on the basis of those results. The body weights of the Control group, the Vehicle group, and the CEL-3 administration group before the test were 160.8±1.7 g, 163.4±2.5 g, and 158.9±1.9 g, respectively. In addition, the body weights of the Control group, the Vehicle group, and the CEL-3 administration group after the test were 355.4±5.1 g, 264.91±9.3 g, and 260.0±11.1 g, respectively.

[4] = tested on: transcription factor NF-κB; conditions: Non-patent Literature 2 and 3; cited from earlier work
[5] = tested on: pulmonary artery smooth muscle cells; conditions: previous report, Non-patent Literature 3; cited from earlier work
[6] = target: zinc finger protein ZFC3H1 (Homo sapiens, UniProt O60293); conditions: Non-patent Literature 2; cited from earlier work
zinc finger protein ZFC3H1, sequence (O60293 whole entry): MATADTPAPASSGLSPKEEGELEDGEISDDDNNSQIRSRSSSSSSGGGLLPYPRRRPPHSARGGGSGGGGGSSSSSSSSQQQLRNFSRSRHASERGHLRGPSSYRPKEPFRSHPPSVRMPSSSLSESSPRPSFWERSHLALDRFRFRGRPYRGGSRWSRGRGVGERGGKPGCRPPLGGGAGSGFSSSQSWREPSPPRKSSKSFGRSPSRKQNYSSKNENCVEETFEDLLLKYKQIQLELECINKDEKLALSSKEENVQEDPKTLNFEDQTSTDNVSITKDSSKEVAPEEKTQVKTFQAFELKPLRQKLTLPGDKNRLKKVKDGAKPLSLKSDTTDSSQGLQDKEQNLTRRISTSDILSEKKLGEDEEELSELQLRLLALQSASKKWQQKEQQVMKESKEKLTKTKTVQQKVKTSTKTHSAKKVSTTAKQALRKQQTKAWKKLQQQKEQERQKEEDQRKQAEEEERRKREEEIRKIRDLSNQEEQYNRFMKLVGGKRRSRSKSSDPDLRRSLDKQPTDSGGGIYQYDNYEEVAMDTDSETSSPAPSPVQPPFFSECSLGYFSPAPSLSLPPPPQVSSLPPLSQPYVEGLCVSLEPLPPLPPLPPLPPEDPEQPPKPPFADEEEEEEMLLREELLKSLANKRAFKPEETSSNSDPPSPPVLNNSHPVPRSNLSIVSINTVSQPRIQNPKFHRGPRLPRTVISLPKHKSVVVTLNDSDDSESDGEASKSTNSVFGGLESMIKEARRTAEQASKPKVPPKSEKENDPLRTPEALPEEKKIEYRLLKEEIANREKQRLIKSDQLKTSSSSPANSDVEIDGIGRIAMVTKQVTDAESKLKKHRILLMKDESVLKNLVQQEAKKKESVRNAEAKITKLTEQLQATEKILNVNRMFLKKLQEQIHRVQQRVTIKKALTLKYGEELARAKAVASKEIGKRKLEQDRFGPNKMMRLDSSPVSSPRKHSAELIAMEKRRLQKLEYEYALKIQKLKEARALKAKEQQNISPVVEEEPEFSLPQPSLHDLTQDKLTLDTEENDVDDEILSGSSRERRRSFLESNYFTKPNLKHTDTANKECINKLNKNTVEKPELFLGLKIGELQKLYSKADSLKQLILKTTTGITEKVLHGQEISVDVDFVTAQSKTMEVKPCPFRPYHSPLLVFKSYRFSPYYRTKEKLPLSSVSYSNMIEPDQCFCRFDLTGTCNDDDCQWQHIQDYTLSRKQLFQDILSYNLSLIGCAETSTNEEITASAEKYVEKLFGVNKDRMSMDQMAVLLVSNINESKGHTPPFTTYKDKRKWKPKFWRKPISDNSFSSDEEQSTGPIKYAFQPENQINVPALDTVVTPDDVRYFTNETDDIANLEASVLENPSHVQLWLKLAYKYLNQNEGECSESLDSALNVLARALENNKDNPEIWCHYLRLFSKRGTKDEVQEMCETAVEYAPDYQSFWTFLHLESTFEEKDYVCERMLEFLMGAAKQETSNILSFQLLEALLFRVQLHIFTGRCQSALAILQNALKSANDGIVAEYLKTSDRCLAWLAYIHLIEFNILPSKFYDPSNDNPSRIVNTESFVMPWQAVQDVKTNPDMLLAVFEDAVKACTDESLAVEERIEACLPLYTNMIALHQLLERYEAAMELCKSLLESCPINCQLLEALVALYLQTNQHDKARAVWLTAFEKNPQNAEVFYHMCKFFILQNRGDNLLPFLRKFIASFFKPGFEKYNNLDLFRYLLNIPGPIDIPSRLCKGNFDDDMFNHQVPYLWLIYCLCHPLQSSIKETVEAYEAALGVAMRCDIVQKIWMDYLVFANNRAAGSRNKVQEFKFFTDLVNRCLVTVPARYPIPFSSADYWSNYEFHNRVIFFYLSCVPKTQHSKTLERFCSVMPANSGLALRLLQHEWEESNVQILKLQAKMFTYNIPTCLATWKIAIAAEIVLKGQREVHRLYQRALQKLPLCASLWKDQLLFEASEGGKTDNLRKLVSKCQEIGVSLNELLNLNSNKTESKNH

[7] = final concentration 100 nm (so in the source)
[8] = 3 weeks hypoxia, vs control group (FIG. 3)

Row | Structure (SMILES) | day 2/day 0 cell number ratio (MTT cell viability) ([1]; final concentration 1 μM) | day 2/day 0 cell number ratio (MTT cell viability) ([1]; final concentration 5 μM) | day 2/day 0 cell number ratio (MTT cell viability) [1, 7] | also measured
1 | CCCCCCc1cc(Br)c(O)c(C(=O)c2cc(Cl)c(Cl)[nH]2)c1O [CEL-15] | 0.78 | 0.54 | 1.26 | 
2 | CCCCCCc1cc(Cl)c(O)c(C(=O)c2cc(Br)c(Br)[nH]2)c1O [CEL-13] | 0.72 | 0.51 | 1.20 | 
3 | CCCCCCc1cc(C)c(O)c(C(=O)c2cc(Cl)c(Cl)[nH]2)c1O [CEL-10] | 0.68 | 0.48 | 1.16 | 
4 | CCCCCCCc1cc(Cl)c(O)c(C(=O)c2cc(Cl)c(Cl)[nH]2)c1O [CEL-6] | 0.77 | 0.54 | 1.23 | 
5 | CCCCCc1cc(Cl)c(O)c(C(=O)c2cc(Cl)c(Cl)[nH]2)c1O [CEL-5] | 0.79 | 0.53 | 1.25 | 
6 | CCCCCCCCCCCCc1cc(Cl)c(O)c(C(=O)c2cc(Cl)c(Cl)[nH]2)c1O [CEL-8] | 0.74 | 0.47 | 1.13 | 
7 | Cc1ccc(S(=O)(=O)N[C@@H](Cc2ccccc2)C(=O)CCl)cc1 [N-p-tosyl-L-phenylalanine chloromethyl ketone, reference compound] |  |  |  | suppressive effect on the proliferation of pulmonary artery smooth muscle cells ([1]; final concentration 5 μM): not sufficiently suppressed
8 | Cc1ccc(S(=O)(=O)N[C@@H](CCCCN)C(=O)CCl)cc1.Cl [Nα-p-tosyl-L-lysine chloromethyl ketone hydrochloride, reference compound] |  |  |  | suppressive effect on the proliferation of pulmonary artery smooth muscle cells ([1]; final concentration 5 μM): not sufficiently suppressed
9 | CCCc1cc(Cl)c(O)c(C(=O)c2ccc(Br)[nH]2)c1O [CEL-14] | 1.35 | 0.88 | 1.37 | 
10 | CCCCc1cc(Cl)c(O)c(C(=O)c2cc(Cl)c(Cl)[nH]2)c1O [CEL-4] | 0.79 | 0.53 | 1.24 | 
11 | Cc1cc(Cl)c(O)c(C(=O)c2cc(Cl)c(Cl)[nH]2)c1O [CEL-3] | 0.99 | 0.81 | 1.25 | increase in right ventricle/(left ventricle plus septum) weight ratio (RV/[LV+S]) [2, 8]: suppressed; increase in right ventricular systolic pressure (RVSP) [2, 8]: suppressed; body weight after the test ([2]; 3 weeks, Vehicle group 24.2±0.8 g): 23.9 ± 0.7 g; increase in right ventricle/(left ventricle plus septum) weight ratio (RV/[LV+S]) ([3]; vs control group (FIG. 4)): suppressed; increase in right ventricular systolic pressure (RVSP) ([3]; vs control group (FIG. 4)): suppressed; body weight after the test ([3]; Vehicle group 264.91±9.3 g): 260.0 ± 11.1 g
12 | O=C(Nc1cc(C(F)(F)F)cc(C(F)(F)F)c1)c1cc(Cl)ccc1O [IMD-0354, N-[3,5-bis(trifluoromethyl)phenyl]-5-chloro-2-hydroxybenzamide, reference compound] |  |  |  | NF-κB-inhibiting action [4]: has an NF-κB-inhibiting action; suppression of proliferation of pulmonary artery smooth muscle cells [5]: suppresses the proliferation of pulmonary artery smooth muscle cells
13 | CCCCCCc1cc(Cl)c(O)c(C(=O)c2cc(Cl)c(Cl)[nH]2)c1O [CEL-1, celastramycin] | 0.83 | 0.52 | 1.46 | binding to ZFC3H1 [6]: binds to a zinc finger protein ZFC3H1; NF-κB-inhibiting action [4]: inhibit signal transduction in which a transcription factor NF-κB is involved
14 | CCCCCCCCc1cc(Cl)c(O)c(C(=O)c2cc(Cl)c(Cl)[nH]2)c1O [CEL-7] | 0.84 | 0.52 | 1.27 | 
15 | O=C(c1cc(Cl)c(Cl)[nH]1)c1c(O)ccc(Cl)c1O [CEL-2] | 1.36 | 0.87 | 1.37 | 
16 | O=C(/C=C/c1ccc(O)c(O)c1)OCCc1ccccc1 [caffeic acid phenethyl ester, reference compound] |  |  |  | suppressive effect on the proliferation of pulmonary artery smooth muscle cells ([1]; final concentration 5 μM): not sufficiently suppressed
17 | CCCCCCc1cc(Cl)c(O)c(C(=O)c2c[nH]c(Cl)c2Cl)c1O [CEL-19] | 1.24 | 0.94 | 1.31 | 
